Results as given in PMC4848466, “Insights into the activation mechanism of class I HDAC complexes by inositol phosphates” (Nature Communications, 2016).
“Also recorded” adds a separate entry of the source. Non-standard residues stand in square brackets, D forms with d. Residues, ends and D or L forms follow the SMILES beside them. *: point of attachment. Asu = N[C@@H](CCCCCC(=O)O)C(=O)O; NHOH = ON*

Legend:
[1] = target: T1, HDAC1:MTA1 complex (Homo sapiens, UniProt Q13330+Q13547); assay: Activation of HDAC1:MTA1 deacetylase activity by inositol phosphates (BOC-Lys-AMC assay); type: biochemical; conditions: for Kd: read-out: Kdapp (apparent Kd from activation titration)
T1 construct: Full-length HDAC1 and residues 162–354 of MTA1 were cloned into pcDNA3 vectors; residues 162–354 of MTA1 were cloned into pcDNA3 vectors; FLAG tag with TEV protease cleavage site (cleaved yes); made in house; host or cells: HEK293F cells (co-transfection, pcDNA3)
Procedure: (§1) HDAC activity of the protein complex was measured using an HDAC assay with a BOC-Lys-AMC substrate. 50 nM HDAC3:SMRT or 50 nM HDAC1:MTA1 was incubated with 100 μM BOC-Lys-AMC substrate in a final volume of 50 μl buffer A (50 mM Tris pH 7.5, 50 mM NaCl, 5% Glycerol), in a black 96-well plate for 30 min at 37 °C.
(§2) To test the ability of inositol phosphates and derivatives to activate the complex, 50 nM HDAC3:SMRT (which had been stripped of its endogenous co-purified inositol phosphate) or 50 nM HDAC1:MTA1 was incubated with inositol phosphate or analogue for 30 min at 37 °C before the HDAC activity was measured. All measurements were performed in triplicate and data analysed using GraphPad Prism (version 6.0, GraphPad Software, Inc).

[2] = target: T2, HDAC3:SMRT complex (Homo sapiens, UniProt O15379+Q9Y618); assay: Activation of HDAC3:SMRT deacetylase activity by inositol phosphates (BOC-Lys-AMC assay); type: biochemical; conditions: for Kd / HDAC3 activation relative to maximal Ins(1,4,5,6)P4-stimulated activity: BOC-Lys-AMC assay; for Kd: one-site binding fit of HDAC activity vs inositol phosphate concentration, read-out: Kdapp (apparent Kd from activation titration); for HDAC3 activation relative to maximal Ins(1,4,5,6)P4-stimulated activity: titration / maximal activation; for HDAC activity as percentage of maximal Ins(1,4,5,6)P4 activity: compound tested at 200 μM
T2 construct: Full-length HDAC3, and residues 350–480 of SMRT were cloned into pcDNA3 vectors; residues 350–480 of SMRT were cloned into pcDNA3 vectors; FLAG tag with TEV protease cleavage site (cleaved yes); made in house; host or cells: HEK293F cells (co-transfection, pcDNA3)
Procedure: (§3) To understand the stereochemical basis underlying the activation of HDAC3 by inositol phosphates we investigated the ability of a range of inositol phosphates and derivatives to enhance the activity of HDAC3 in deacetylase assays. To achieve this we used an assay based on the complex of HDAC3 with an extended SMRT construct which is stable in the absence of inositol phosphate.
as §1, §2

[3] = target: T3, HDAC3:SMRT (Homo sapiens, UniProt O15379+Q9Y618); assay: Fluorescence anisotropy direct binding of 2-FAM-Ins(1,3,4,5,6)P5; conditions: inhibitor bound at the active site
Procedure: When required, assays were performed in the presence of HDAC inhibitor (20 mM final concentration). Plates were mixed by shaking for 1 s, and measurements taken using a Victor X5 plate reader (Perkin Elmer) at room temperature with an excitation wavelength of 480 nm and an emission wavelength of 535 nm. Experiments were performed in triplicate and data were analysed using GraphPad Prism (version 6.0), Kd values were calculated by nonlinear curve fitting using a one-site binding (hyperbola) model (Y=Bmax*X/(Kd+X).

[4] = target: T4, HDAC1:MTA1 (Homo sapiens, UniProt Q13330+Q13547); assay: Inhibition of HDAC1:MTA1 by peptide-based inhibitor; type: biochemical
T4 construct: Full-length HDAC1 and residues 162–354 of MTA1 were cloned into pcDNA3 vectors; residues 162–354 of MTA1 were cloned into pcDNA3 vectors; FLAG tag with TEV protease cleavage site (cleaved yes); made in house; host or cells: HEK293F cells (co-transfection, pcDNA3)

[5] = target: T3, HDAC3:SMRT; assay: Fluorescence anisotropy displacement of 2-FAM-Ins(1,3,4,5,6)P5; type: binding; set-up: Full-length HDAC3, and residues 350–480 of SMRT were cloned into pcDNA3 vectors; residues 350–480 of SMRT were cloned into pcDNA3 vectors; FLAG tag with TEV protease cleavage site (cleaved yes); made in house; host or cells: HEK293F cells (co-transfection, pcDNA3); conditions: fluorescence anisotropy competition; for IC50: read-out: IC50 displacement of 2-FAM-Ins(1,3,4,5,6)P5
Procedure: The concentration of protein was determined as that which gave 100% bound in the protein titration experiments. The data were analysed and IC50 values calculated using GraphPad Prism (version 6.0).

[6] = target: T4, HDAC1:MTA1; assay: Michaelis-Menten enzyme kinetics on Caliper EZ Reader with H4K16ac peptide; type: biochemical; conditions: H4 12–18K16ac peptide; in the presence of the inositol phosphate
From the text: (§4) To explore further the differences between the two complexes we established a more physiological, real-time kinetic assay using substrates based on the tails of histones H4 and H3. The peptides tested were; H4 12–18(K16ac), H3 23–29(K27ac) and H3 6–12(K9ac). […] HDAC3:SMRT is most catalytically active against H3 23–29(K27ac) (Supplementary Fig. 7), whereas HDAC1:MTA1 is most catalytically active against H4 12–18(K16ac) (Fig. 4d). In both cases an approximate 3-fold greater kcat is observed for the preferred versus non-preferred substrate, in the absence of inositol phosphate. […] The net effect of both inositol phosphates tested was between a two and fivefold increase in catalytic efficiency (kcat/Km) (Fig. 4c,d, Supplementary Fig. 7).
(§5) Michaelis–Menten kinetics were determined using a HDAC assay on the Caliper EZ Reader II system (Caliper Life Sciences, http://www.caliperls.com). To assess the effect of inositol phosphate, 20 nM HDAC3:SMRT or 80 nM HDAC1:MTA1 were pre-mixed with InsP6 before dilution and addition of fluorescein-labelled H4K16Ac substrate. Reactions were carried out in duplicate in 30 μl reaction volumes, performed at room temperature in 50 mM Tris pH 7.5, 50 mM NaCl, 5% glycerol. Data was analysed using GraphPad Prism (version 6.0).

[7] = target: T5, HDAC3:SMRT complex (Homo sapiens, UniProt O15379); assay: Activation of HDAC3:SMRT deacetylase activity by inositol phosphates (BOC-Lys-AMC assay); type: biochemical; conditions: BOC-Lys-AMC assay; one-site binding fit of HDAC activity vs inositol phosphate concentration; read-out: Kdapp (apparent Kd from activation titration)
T5 construct: Full-length HDAC3, and residues 350–480 of SMRT were cloned into pcDNA3 vectors; residues 350–480 of SMRT were cloned into pcDNA3 vectors; FLAG tag with TEV protease cleavage site (cleaved yes); made in house; host or cells: HEK293F cells (co-transfection, pcDNA3)
Procedure: as §3, §1, §2

[8] = target: T3, HDAC3:SMRT; assay: Michaelis-Menten enzyme kinetics on Caliper EZ Reader with H4K16ac peptide; type: biochemical; set-up: Full-length HDAC3, and residues 350–480 of SMRT were cloned into pcDNA3 vectors; residues 350–480 of SMRT were cloned into pcDNA3 vectors; FLAG tag with TEV protease cleavage site (cleaved yes); made in house; host or cells: HEK293F cells (co-transfection, pcDNA3); conditions: H4 12–18K16ac peptide; in the presence of the inositol phosphate
From the text: as §4, §5

[9] = target: HDAC1:MTA1 complex (UniProt Q13547)
[10] = target: T6, HDAC1 (UniProt Q13547 1-482); assay: crystal structure; HDAC1:MTA1 (co-expressed and co-purified, 5 mg/ml) co-crystallised with H4K16Hx at a 1:2 molar ratio; sitting drop, 20 °C, 0.1 M HEPES pH 7.5, 2 M ammonium sulfate, 5% PEG400; crystals frozen with 225 mM InsP6; 3.3 Å; conditions: both partners purified
T6 construct: Histone deacetylase 1 (HDAC1), full length, cloned into pcDNA3; Only handled as the co-expressed, co-purified complex with MTA1 162-354; also called histone deacetylase 1; source: HEK293F, co-transfected with the MTA1 construct, purified as the complex (FLAG resin, TEV elution, gel filtration)
T6 sequence (Q13547 whole entry): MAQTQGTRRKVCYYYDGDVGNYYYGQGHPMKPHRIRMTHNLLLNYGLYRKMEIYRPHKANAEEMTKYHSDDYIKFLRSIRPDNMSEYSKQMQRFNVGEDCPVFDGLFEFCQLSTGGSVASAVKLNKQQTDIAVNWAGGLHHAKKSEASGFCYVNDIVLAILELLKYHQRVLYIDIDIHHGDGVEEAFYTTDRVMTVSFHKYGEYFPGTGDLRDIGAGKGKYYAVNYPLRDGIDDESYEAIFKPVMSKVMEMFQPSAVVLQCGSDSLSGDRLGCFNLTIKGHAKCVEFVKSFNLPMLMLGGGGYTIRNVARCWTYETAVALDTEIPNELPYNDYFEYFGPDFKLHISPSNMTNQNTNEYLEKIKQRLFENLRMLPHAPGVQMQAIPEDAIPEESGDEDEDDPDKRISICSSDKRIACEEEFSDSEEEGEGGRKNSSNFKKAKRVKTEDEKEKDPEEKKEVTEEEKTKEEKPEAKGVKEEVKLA

T1 sequence (Q13547 whole entry, one chain of several, the tested form may be a part): as the sequence (Q13547 whole entry) above
T2 sequence (O15379 whole entry, the tested form may be a part): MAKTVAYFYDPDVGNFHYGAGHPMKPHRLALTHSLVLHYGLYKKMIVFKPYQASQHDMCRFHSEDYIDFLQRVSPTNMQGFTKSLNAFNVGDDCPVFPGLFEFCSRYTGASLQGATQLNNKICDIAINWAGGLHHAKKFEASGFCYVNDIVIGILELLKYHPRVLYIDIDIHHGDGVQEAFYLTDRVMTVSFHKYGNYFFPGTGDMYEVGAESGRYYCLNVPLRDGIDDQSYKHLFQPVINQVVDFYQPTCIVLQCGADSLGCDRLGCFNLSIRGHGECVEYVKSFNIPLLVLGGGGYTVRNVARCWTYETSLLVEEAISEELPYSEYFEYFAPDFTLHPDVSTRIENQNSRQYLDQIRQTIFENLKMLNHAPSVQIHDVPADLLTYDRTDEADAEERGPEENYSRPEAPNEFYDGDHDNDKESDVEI
T2 sequence (Q9Y618 350-480): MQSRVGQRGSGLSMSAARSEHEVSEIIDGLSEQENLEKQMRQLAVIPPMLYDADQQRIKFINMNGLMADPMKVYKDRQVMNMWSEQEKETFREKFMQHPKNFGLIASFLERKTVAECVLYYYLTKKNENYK
T3 sequence (O15379 whole entry): as the sequence (O15379 whole entry, the tested form may be a part) above
T3 sequence (Q9Y618 350-480): as the sequence (Q9Y618 350-480) above
T4 sequence (Q13547 whole entry, one chain of several, the tested form may be a part): as the sequence (Q13547 whole entry) above
HDAC1:MTA1 complex (UniProt Q13547), sequence (Q13547 whole entry, one chain of several): as the sequence (Q13547 whole entry) above
T5 sequence (O15379 whole entry, the tested form may be a part): as the sequence (O15379 whole entry, the tested form may be a part) above
T5 sequence (Q9Y618 350-480, further chain): as the sequence (Q9Y618 350-480) above

O=P(O)(O)OC1[C@@H](OP(=O)(O)O)[C@H](OP(=O)(O)O)C(O)[C@H](OP(=O)(O)O)[C@H]1OP(=O)(O)O (some centres unmarked)
activation of HDAC1:MTA1 complex [1]: can be activated | Kd [1]: 2.6 µM | Kd [2]: 5 µM | HDAC3 activation relative to maximal Ins(1,4,5,6)P4-stimulated activity [2]: same degree as Ins(1,4,5,6)P4 | increase in apparent affinity compared with Ins(1,4,5,6)P4 ([2]; ratio of apparent Kd values): twofold

O=C(CP(=O)(O)O)O[C@@H]1[C@@H](OP(=O)(O)O)[C@H](OP(=O)(O)O)[C@H](O)[C@H](OP(=O)(O)O)[C@H]1OP(=O)(O)O [2-OH-5-PA-InsP4]
HDAC activity as percentage of maximal Ins(1,4,5,6)P4 activity [2]: completely inert

O=P(O)(O)O[C@@H]1[C@@H](OP(=O)(O)OP(=O)(O)O)[C@H](OP(=O)(O)O)[C@@H](OP(=O)(O)O)[C@@H](O)[C@H]1OP(=O)(O)O [5-PP-InsP4]
HDAC activity as percentage of maximal Ins(1,4,5,6)P4 activity [2]: ~60%

CC(=O)N[C@@H](CCCCN)C(=O)NCC(=O)NCC(=O)N[C@@H](C)C(=O)N[C@@H](CCCCCC(=O)NO)C(=O)N[C@@H](CCCNC(=N)N)C(=O)N[C@@H](Cc1c[nH]cn1)C(N)=O [H4K16Hx] (Ac-KGGA[Asu](NHOH)RH-NH2)
enhancement of the binding of 2-FAM-Ins(1,3,4,5,6)P5 to the allosteric site by inhibitor [3]: more modest effect | IC50 [4]: 0.336 µM

O=P(O)(O)OC1[C@H](O)[C@H](OP(=O)(O)O)C(OP(=O)(O)O)[C@H](OP(=O)(O)O)[C@H]1O (some centres unmarked) [Ins(1,3,4,5)P4]
Kd [2]: 13 µM | HDAC3 activation relative to maximal Ins(1,4,5,6)P4-stimulated activity [2]: greater than 75%

O=P(O)(O)O[C@@H]1C(O)[C@H](OP(=O)(O)O)[C@@H](OP(=O)(O)O)C(O)[C@H]1OP(=O)(O)O (some centres unmarked) [Ins(1,3,4,6)P4]
IC50 [5]: 1.5 µM | HDAC3 activation relative to maximal Ins(1,4,5,6)P4-stimulated activity [2]: unable to activate HDAC3; also recorded: do not activate the complex

O=P(O)(O)OC1C(O)C(OP(=O)(O)O)C(OP(=O)(O)O)C(OP(=O)(O)O)C1O (centres unmarked) [Ins(1,3,5,6)P4]
Kd [2]: 30 µM

O=P(O)(O)O[C@@H]1[C@H](O)[C@H](O)[C@@H](OP(=O)(O)O)[C@H](OP(=O)(O)O)[C@H]1O [Ins(1,4,5)P3]
IC50 [5]: 19 µM | HDAC3 activation relative to maximal Ins(1,4,5,6)P4-stimulated activity [2]: completely unable to activate HDAC3; also recorded: completely inert; also recorded: do not activate the complex

O=P(O)(O)O[C@@H]1[C@@H](OP(=O)(O)O)[C@H](OP(=O)(O)O)[C@@H](O)[C@@H](O)[C@H]1OP(=O)(O)O [Ins(1,4,5,6)P4, inositol 1,4,5,6-tetrakisphosphate]
kcat [6]: 0.90 s⁻¹ | Kd [1]: 4.7 µM | Kd [7]: 10 µM | kcat [8]: 2.72 s⁻¹

O=P(O)(O)O[C@H]1[C@H](O)[C@H](O)[C@H](OP(=O)(O)O)[C@@H](OP(=O)(O)O)[C@@H]1O [Ins(1,4,6)P3]
HDAC3 activation relative to maximal Ins(1,4,5,6)P4-stimulated activity [2]: completely inert

O=P(O)(O)O[C@H]1[C@H](OP(=O)(O)O)[C@H](O)[C@H](O)[C@@H](O)[C@@H]1OP(=O)(O)O [Ins(1,5,6)P3]
Kd [2]: 29 µM | HDAC3 activation relative to maximal Ins(1,4,5,6)P4-stimulated activity [2]: 60%

O=P(O)(O)O[C@H]1[C@H](OP(=O)(O)O)[C@@H](OP(=O)(O)O)[C@@H](O)[C@@H](O)[C@@H]1OP(=O)(O)O [Ins(3,4,5,6)P4]
Kd [2]: 41 µM

O=P(O)(O)OC1C(O)C(O)C(O)C(OP(=O)(O)O)C1OP(=O)(O)O (centres unmarked) [Ins(4,5,6)P3]
Kd [2]: 45 µM | HDAC3 activation relative to maximal Ins(1,4,5,6)P4-stimulated activity [2]: 85%

Nc1ncnc2c1ncn2[C@@H]1O[C@H](CO)[C@@H](O[C@H]2O[C@H](CO)[C@@H](OP(=O)(O)O)[C@H](OP(=O)(O)O)[C@H]2O)[C@H]1OP(=O)(O)O [adenophostin A]
IC50 displacement of 2-FAM-Ins(1,3,4,5,6)P5 [5]: nor competes for inositol phosphate binding | HDAC activity as percentage of maximal Ins(1,4,5,6)P4 activity [2]: no activity; also recorded: neither activates HDAC3; also recorded: completely inert

O=P(O)(O)Oc1ccc(OP(=O)(O)O)c(OP(=O)(O)O)c1OP(=O)(O)O [benzene 1,2,3,4-tetrakisphosphate]
HDAC activity as percentage of maximal Ins(1,4,5,6)P4 activity [2]: fails to substantially activate the complex

H4K16Hx (histone H4 residues 12-18 with hydroxamic acid functionality at K16) (from UniProt P62805 13-19) (peptide)
inhibition of the deacetylase activity of HDAC1:MTA1 (IC50) [9]: 0.336 µM

MS-275
enhancement of the binding of 2-FAM-Ins(1,3,4,5,6)P5 to the allosteric site by inhibitor [3]: threefold enhancement

B1: MTA1 residues 162-354 (domain or fragment, UniProt Q13330 162-354, looked up)
chain: ADKGEIRVGNRYQADITDLLKEGEEDGRDQSRLETQVWEAHNPLTDKQIDQFLVVARSVGTFARALDCSSSVRQPSLHMSAAAASRDITLFHAMDTLHKNIYDISKAISALVPQGGPVLCRDEMEEWSASEANLFEEALEKYGKDFTDIQQDFLPWKSLTSIIEYYYMWKTTDRYVQQKRLKAAEAESKLKQV
notes: MTA1, residues 162-354, cloned into pcDNA3 with a FLAG tag and TEV protease cleavage site; The complex was eluted from the FLAG resin with TEV protease; source: HEK293F, co-transfected with HDAC1, purified as the complex (FLAG resin, TEV elution, gel filtration)
binding result [10]: binds
